biological target: FGFR2 (Homo sapiens, UniProt P21802); experiment: FGFR wild type enzyme assay (HTRF KinEASE-TK), FGFR2; conditions: Enz FGFR2 (nM), FGFR2 wild type enzyme assay
Sequence (P21802 399-821 limits assumed): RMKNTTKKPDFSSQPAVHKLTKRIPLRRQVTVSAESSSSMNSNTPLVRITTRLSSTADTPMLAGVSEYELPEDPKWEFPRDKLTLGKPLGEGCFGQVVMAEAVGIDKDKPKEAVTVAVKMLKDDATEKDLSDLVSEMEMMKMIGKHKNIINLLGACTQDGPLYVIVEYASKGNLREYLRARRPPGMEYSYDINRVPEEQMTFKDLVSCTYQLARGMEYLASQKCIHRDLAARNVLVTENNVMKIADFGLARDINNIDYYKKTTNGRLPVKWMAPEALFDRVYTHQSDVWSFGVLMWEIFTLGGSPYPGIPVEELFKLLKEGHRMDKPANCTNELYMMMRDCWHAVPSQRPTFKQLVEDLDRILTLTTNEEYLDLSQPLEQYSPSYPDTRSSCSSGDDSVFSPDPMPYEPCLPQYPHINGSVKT

**Q.** Which IC50 does the source give for C[C@@H](O)C(=O)N1CCC[C@H](n2cc(-c3cc(Sc4ccccc4C#N)c4c(C#N)cnn4c3)cn2)C1 [Example 590, 4-((2-cyanophenyl)thio)-6-(1-((S)-1-((R)-2-hydroxypropanoyl)piperidin-3-yl)-1H-pyrazol-4-yl)pyrazolo[1,5-a]pyridine-3-carbonitrile] here?
**A.** 0.5 nM

**Q.** Which IC50 does the source give for N#Cc1ccccc1Sc1cc(-c2cnn([C@@H]3CCNC(=O)C3)c2)cn2ncc(C#N)c12 [Example 591, (R)-4-((2-cyanophenyl)thio)-6-(1-(2-oxopiperidin-4-yl)-1H-pyrazol-4-yl)pyrazolo[1,5-a]pyridine-3-carbonitrile] here?
**A.** 0.4 nM

**Q.** N#Cc1ccccc1Sc1cc(-c2cnn([C@H]3CCNC(=O)C3)c2)cn2ncc(C#N)c12 [Example 592, (S)-4-((2-cyanophenyl)thio)-6-(1-(2-oxopiperidin-4-yl)-1H-pyrazol-4-yl)pyrazolo[1,5-a]pyridine-3-carbonitrile] was tested. Which IC50 did it give?
**A.** 1 nM

**Q.** How did the IC50 turn out when CC1(C)CC[C@H](n2cc(-c3cc(Sc4ccccc4C#N)c4c(C#N)cnn4c3)cn2)CN1 [Example 593, (S)-4-((2-cyanophenyl)thio)-6-(1-(6,6-dimethylpiperidin-3-yl)-1H-pyrazol-4-yl)pyrazolo[1,5-a]pyridine-3-carbonitrile] was run?
**A.** 1 nM

**Q.** With CC1(C)CC[C@@H](n2cc(-c3cc(Sc4ccccc4C#N)c4c(C#N)cnn4c3)cn2)CN1 [Example 594, (R)-4-((2-cyanophenyl)thio)-6-(1-(6,6-dimethylpiperidin-3-yl)-1H-pyrazol-4-yl)pyrazolo[1,5-a]pyridine-3-carbonitrile] as the compound, how does the IC50 read?
**A.** 1 nM

**Q.** How did the IC50 turn out when N#Cc1cc(F)ccc1Sc1cc(-c2ccc(N3CCNCC3)nc2)cn2ncc(C#N)c12 [Example 595, 4-((2-cyano-4-fluorophenyl)thio)-6-(6-(piperazin-1-yl)pyridin-3-yl)pyrazolo[1,5-a]pyridine-3-carbonitrile] was run?
**A.** 15 nM

**Q.** CN(CC(O)CO)c1ccc(-c2cc(Sc3ccc(F)cc3C#N)c3c(C#N)cnn3c2)cn1 (stereo not drawn) [Example 596, 4-((2-cyano-4-fluorophenyl)thio)-6-(6-((2,3-dihydroxypropyl)(methyl)amino)pyridin-3-yl)pyrazolo[1,5-a]pyridine-3-carbonitrile] was tested. Which IC50 did it give?
**A.** 1 nM

**Q.** How did the IC50 turn out when Cc1cccc(C#N)c1Sc1cc(-c2cnn(C)c2)cn2ncc(C#N)c12 [Example 597, 4-((2-cyano-6-methylphenyl)thio)-6-(1-methyl-1H-pyrazol-4-yl)pyrazolo[1,5-a]pryidine-3-carbonitrile] was run?
**A.** 30 nM

**Q.** With CN(C)CCn1cc(-c2cc(Sc3ccccc3C#N)c3c(C#N)cnn3c2)cn1 [Example 598, 4-((2-cyanophenyl)thio)-6-(1-(2-(dimethylamino)ethyl)-1H-pyrazol-4-yl)pyrazolo[1,5-a]pryidine-3-carbontrile] as the compound, how does the IC50 read?
**A.** 1 nM

**Q.** Which IC50 does the source give for N#Cc1ccccc1Sc1cc(-c2cnn([C@H]3CCCC[C@H]3O)c2)cn2ncc(C#N)c12 [Example 599, 4-((2-cyanophenyl)thio)-6-(1-((1S,2R)-2-hydroxycyclohexyl)-1H-pyrazol-4-yl)pyrazolo[1,5-a]pyridine-3-carbonitrile] here?
**A.** 2 nM

**Q.** How did the IC50 turn out when CC(=O)N1CCN(c2nnc(-c3cc(Sc4ccccc4C#N)c4c(C#N)cnn4c3)s2)CC1 [Example 600, 6-(5-(4-acetylpiperazin-1-y)-1,3,4-thiadiazol-2-yl)-4-((2-cyanophenyl)thio)pyrazolo [1,5-a]pyridine-3-carbonitrile] was run?
**A.** 6 nM

**Q.** Which IC50 does the source give for CC(=O)N1CCN(c2ncc(-c3cc(Sc4ccccc4C#N)c4c(C#N)cnn4c3)o2)CC1 [Example 601, 6-(2-(4-acetylpiperazin-1-yl)oxazol-5-yl)-4-((2-cyanophenyl)thio)pyrazolo [1,5-a]pyridine-3-carbonitrile] here?
**A.** 53 nM

**Q.** How did the IC50 turn out when N#Cc1ccccc1Sc1cc(-c2cnn([C@@H]3CCN(CCO)C3)c2)cn2ncc(C#N)c12 [Example 603, (R)-4-((2-cyanophenyl)thio)-6-(1-(1-(2-hydroxyethyl)pyrrolidin-3-yl)-1H-pyrazol-4-yl)pyrazolo[1,5-a]pyridine-3-carbonitrile] was run?
**A.** 0.6 nM

**Q.** Which IC50 does the source give for CN1CC[C@@H](n2cc(-c3cc(Sc4ccccc4C#N)c4c(C#N)cnn4c3)cn2)C1 [Example 604, (R)-4-((2-cyanophenyl)thio)-6-(1-(1-methylpyrrolidin-3-yl)-1H-pyrazol-4-yl)pyrazolo[1,5-a]pyridine-3-carbonitrile] here?
**A.** 0.5 nM

**Q.** For C[C@@H](O)C(=O)N1CC[C@@H](n2cc(-c3cc(Sc4ccccc4C#N)c4c(C#N)cnn4c3)cn2)C1 [Example 605, 4-((2-cyanophenyl)thio)-6-(1-((R)-1-((R)-2-hydroxypropanoyl)pyrroli-din-3-yl)-1H-pyrazol-4-yl)pyrazolo[1,5-a]pyridine-3-carbonitrile], which IC50 is on record?
**A.** 0.6 nM

**Q.** For C[C@H](O)C(=O)N1CC[C@@H](n2cc(-c3cc(Sc4ccccc4C#N)c4c(C#N)cnn4c3)cn2)C1 [Example 606, 4-((2-cyanophenyl)thio)-6-(1-((R)-1-((S)-2-hydroxypropanoyl)pyrrolidin-3-yl)-1H-pyrazol-4-y)pyrazolo[1,5-a]pyridine-3-carbonitrile], which IC50 is on record?
**A.** 0.5 nM

**Q.** For N#Cc1ccccc1Sc1cc(-c2cnn(C(F)(F)F)c2)cn2ncc(C#N)c12 [Example 607, 4-((2-cyanophenyl)thio)-6-(1-(trifluoromethyl)-1H-pyrazol-4-yl)pyrazolo[1,5-a]pyridine-3-carbonitrile], which IC50 is on record?
**A.** 10 nM

**Q.** For Cn1ncc(-c2cc(Sc3ccccc3C#N)c3c(C#N)cnn3c2)c1N [Example 608, 6-(5-amino-1-methyl-1H-pyrazol-4-yl)-4-((2-cyanophenyl)thio)pyrazolo [1,5-a]pyridine-3-carbonitrile], which IC50 is on record?
**A.** 2 nM

**Q.** N#Cc1ccccc1Sc1cc(-c2cnn(-c3cn[nH]c3)c2)cn2ncc(C#N)c12 [Example 609, 6-(1′H-[1,4′-bipyrazol]-4-yl)-4-((2-cyanophenyl)thio)pyrazolo [1,5-a]pyridine-3-carbonitrile] was tested. Which IC50 did it give?
**A.** 4 nM

**Q.** For CN1CCN(c2ccc(-c3cc(Sc4ccc(F)cc4C#N)c4c(C#N)cnn4c3)cn2)CC1=O [Example 610, 4-((2-cyano-4-fluorophenyl)thio)-6-(6-(4-methyl-3-oxopiperazin-1-yl)pyridin-3-yl)pyrazolo[1,5-a]pyridine-3-carbonitrile], which IC50 is on record?
**A.** 2 nM

**Q.** Which IC50 does the source give for N#Cc1cc(F)ccc1Sc1cc(-c2ccc(N3C[C@H](O)[C@@H](O)C3)nc2)cn2ncc(C#N)c12 [Example 611, 4-((2-cyano-4-fluorophenyl)thio)-6-(6-((3S,4S)-3,4-dihydroxypyrrolidin-1-yl)pyridin-3-yl)pyrazolo[1,5-a]pyridine-3-carbonitrile] here?
**A.** 3 nM

**Q.** CN(C)c1ccc(-c2cc(Sc3ccc(F)cc3C#N)c3c(C#N)cnn3c2)cn1 [Example 612, 4-((2-cyano-4-fluorophenyl)thio)-6-(6-(dimethylamino)pyridin-3-yl)pyrazolo[1,5-a]pyridine-3-carbonitrile] was tested. Which IC50 did it give?
**A.** 2 nM

**Q.** For N#Cc1ccccc1Sc1cc(-c2cnn(CC(F)F)c2)cn2ncc(C#N)c12 [Example 613, 4-((2-cyanophenyl)thio)-6-(1-(2,2-difluoroethyl)-1H-pyrazol-4-yl)pyrazolo[1,5-a]pyridine-3-carbonitrile], which IC50 is on record?
**A.** 1 nM

**Q.** With Cc1c(-c2cc(Sc3ccccc3C#N)c3c(C#N)cnn3c2)cnn1C [Example 614, 4-((2-cyanophenyl)thio)-6-(1,5-dimethyl-1H-pyrazol-4-yl)pyrazolo[1,5-a]pyridine-3-carbonitrile] as the compound, how does the IC50 read?
**A.** 9 nM

**Q.** With Cc1nc(Sc2cc(-c3cnn(C)c3)cn3ncc(C#N)c23)c(F)cc1F [Example 615, 4-((3,5-difluoro-6-methylpyridin-2-yl)thio)-6-(1-methyl-1H-pyrazol-4-yl)pyrazolo[1,5-a]pyridine-3-carbonitrile] as the compound, how does the IC50 read?
**A.** 2 nM

**Q.** How did the IC50 turn out when Cn1cc(-c2cc(Sc3ccccn3)c3c(C#N)cnn3c2)cn1 [Example 616, 6-(1-methyl-1H-pyrazol-4-yl)-4-(pyridin-2-ylthio)pyrazolo[1,5-a]pyridine-3-carbonitrile] was run?
**A.** 6 nM

**Q.** Which IC50 does the source give for Cn1cc(-c2cc(Sc3ncccc3F)c3c(C#N)cnn3c2)c(N)n1 [Example 617, 6-(3-amino-1-methyl-1H-pyrazol-4-yl)-4-((3-fluoropyridin-2-yl)thio)pyrazolo[1,5-a]pyridine-3-carbonitrile] here?
**A.** 6 nM

**Q.** How did the IC50 turn out when CN1CC[C@@H](n2cc(-c3cc(Sc4ccccc4C#N)c4c(C#N)cnn4c3)cn2)CC1=O [Example 618, (R)-4-((2-cyanophenyl)thio)-6-(1-(1-methyl-2-oxopiperidin-4-yl)-1H-pyrazol-4-yl)pyrazolo[1,5-a]pyridine-3-carbonitrile] was run?
**A.** 0.4 nM

**Q.** How did the IC50 turn out when CN1CC[C@H](n2cc(-c3cc(Sc4ccccc4C#N)c4c(C#N)cnn4c3)cn2)CC1=O [Example 619, (S)-4-((2-cyanophenyl)thio)-6-(1-(1-methyl-2-oxopiperidin-4-yl)-1H-pyrazol-4-yl)pyrazolo[1,5-a]pyridine-3-carbonitrile] was run?
**A.** 2 nM

**Q.** For CC1(C)C[C@H](n2cc(-c3cc(Sc4ccccc4C#N)c4c(C#N)cnn4c3)cn2)CCN1 [Example 620, (R)-4-((2-cyanophenyl)thio)-6-(1-(2,2-dimethylpiperidin-4-yl)-1H-pyrazol-4-yl)pyrazolo[1,5-a]pyridine-3-carbonitrile], which IC50 is on record?
**A.** 0.3 nM

**Q.** With CC1(C)C[C@@H](n2cc(-c3cc(Sc4ccccc4C#N)c4c(C#N)cnn4c3)cn2)CCN1 [Example 621, (S)-4-((2-cyanophenyl)thio)-6-(1-(2,2-dimethylpiperidin-4-yl)-1H-pyrazol-4-yl)pyrazolo[1,5-a]pyridine-3-carbonitrile] as the compound, how does the IC50 read?
**A.** 0.3 nM

**Q.** With N#Cc1ccccc1Sc1cc(-c2cnn([C@@H]3CCC(=O)NC3)c2)cn2ncc(C#N)c12 [Example 622, (R)-4-((2-cyanophenyl)thio)-6-(1-(6-oxopiperidin-3-yl)-1H-pyrazol-4-yl)pyrazolo[1,5-a]pyridine-3-carbonitrile] as the compound, how does the IC50 read?
**A.** 0.5 nM

same assay, conditions: read-out: Enz FGFR2; FGFR2 wild type enzyme assay

**Q.** For CC(=O)O[C@H]1CC[C@H](n2ncc(-c3cc(Sc4ccc(F)cc4C#N)c4c(C#N)cnn4c3)c2C)CC1 [Example 602, (1r,4r)-4-(4-(3-cyano-4-((2-cyano-4-fluorophenyl)thhio)pyrazolo [1,5-a]pyridin-6-yl)-5-methyl-1H-pyrazol-1-yl)cyclohexyl acetate], which IC50 is on record?
**A.** 2 nM
